Where two headings read alike, the source gives them in different places.
Legend:
[1] = Plasma concentrations of COMPOUND A in electrophysiology study (Example 1); type: in vivo; details: human, intravenous, T = 45 min
Procedure: Blood samples for COMPOUND A concentrations were drawn at 0, 10 and 45 minutes after the start of drug infusion, and at discharge the next day.

[2] = system: Human Cardiac Electrophysiology; test: Electrophysiological effects of two intravenous doses in patients (Example 1); type: in vivo; parameters: AH interval / HV interval / VERP / AERP / QT / QRS / Atrial MAP50: unit not given here; details: for Diastolic BP / HEART RATE / Systolic BP: T = 45 min
Procedure: This example provides the results of a study conducted to determine the electrophysiological effects of two intravenous doses of COMPOUND A. Patients in the study required electrophysiologic studies (with or without radiofrequency ablation) and were from 18 to 75 years of age. Following the study and ablation (if applicable), the atrial MAP catheter was positioned and the following electrophysiological measures were performed: • 1. Intervals reflecting conduction: […] Intervals reflecting repolarization/refractoriness: • a). […] Heart rate, brachial (cuff) blood pressure. Drug Administration: • 1. […] Twenty five minutes after the start of intravenous drug infusion (15 minutes after the end of loading and start of maintenance infusion), all electrophysiological measures were repeated.

[3] = Plasma levels in Atrial Arrhythmia Conversion Trial 1 (Example 6); type: in vivo, human; details: for concentration at 10 min: human, plasma, intravenous
Procedure: Plasma levels were obtained, where possible, for the patients at various time intervals following the initial infusion. The time intervals were 10 minutes (i.e., immediately after the initial infusion), 35 minutes (i.e., immediately after the second infusion where applicable), 50 minutes, 90 minutes, and 24 hours.

[4] = system: atrial fibrillation (AF duration 3 hr-7 days; 8-45 days); test: Effect of age, gender and prior rate control medications on conversion of AF to SR (Example 4); type: in vivo, human; details: for Number of Pts Converted to Sinus Rhythm / Pts (%) Converted to Sinus Rhythm: AF Duration 3 hr-7 days
Procedure: Patients (pts) were block randomized in a double-blind, controlled study in a 2:1 ratio to receive COMPOUND A or placebo, stratified by AF duration (3 hr-7 days; 8-45 days). COMPOUND A (3 mg/kg), or similar appearing placebo, were infused over 10-min, followed by a second infusion if AF was not terminated (2 mg/kg or placebo). The proportion of pts with AF duration 3 hr-7 days who had treatment-induced conversion to SR within 90 min was the primary endpoint. Logistic regression was used to examine the effect of age (<65 vs ≧65), gender, and a prior use of rate control medications (beta blockers, calcium antagonists, digoxin).

[5] = patients receiving both infusions
[6] = patients receiving only a first infusion
[7] = 30 days following drug administration

COc1ccc(CCO[C@@H]2CCCC[C@H]2N2CC[C@@H](O)C2)cc1OC.Cl [COMPOUND A, (1R,2R)-2-[(3R)-hydroxypyrrolidinyl]-1-(3,4-dimethoxyphenethoxy)cyclohexane monohydrochloride]
concentration at 45 min ([1]; Dose Level 1, 2 mg/kg): 1080 ± 279 ng/mL | concentration at 45 min ([1]; Dose Level 2, 4 mg/kg): 2170 ± 422 ng/mL | AERP 400 Ave Δ ([2]; Dose Level 1): 3.3 ± 5.4% | AERP 400 Ave Δ (Change from Baseline) ([2]; Dose Level 1): 5.0 ± 9.0 ms | SNRT (A1 400) ([2]; Dose Level 1): 1114.4 ± 227.4 ms | SNRT (A1 600) ([2]; Dose Level 1): 1157.8 ± 238.3 ms | Wenckebach Cycle Length ([2]; Dose Level 1): 388.1 ± 94.4 ms | Diastolic BP ([2]; Dose Level 1, 2 mg/kg): 84 ± 12 mm Hg | HEART RATE ([2]; Dose Level 1, 2 mg/kg): 78 ± 11 bpm | Systolic BP ([2]; Dose Level 1, 2 mg/kg): 135 ± 15 mm Hg | AERP ([2]; Dose Level 1, 300 msec): 180.5 ± 15.5 | AERP ([2]; Dose Level 1, 400 msec): 195.0 ± 23.8 | VERP ([2]; Dose Level 1, 400 msec): 226.7 ± 16.4 | AH interval ([2]; Dose Level 1, 400 msec pacing): 134.2 ± 69.2 | HV interval ([2]; Dose Level 1, 400 msec pacing): 52.5 ± 13.6 | PA interval ([2]; Dose Level 1, 400 msec pacing): 61.8 ± 30.2 | PR interval ([2]; Dose Level 1, 400 msec pacing): 239.2 ± 76.7 | AERP ([2]; Dose Level 1, 600 msec): 219.5 ± 32.2 | VERP ([2]; Dose Level 1, 600 msec): 247.8 ± 22.0 | AH interval ([2]; Dose Level 1, 600 msec pacing): 113.8 ± 29.9 | HV interval ([2]; Dose Level 1, 600 msec pacing): 50.1 ± 12.6 | PA interval ([2]; Dose Level 1, 600 msec pacing): 64.0 ± 22.4 | PR interval ([2]; Dose Level 1, 600 msec pacing): 227.7 ± 45.3 | Atrial MAP50 ([2]; Dose Level 1, A1 200 msec): 116.4 ± 15.4 | Atrial MAP50 ([2]; Dose Level 1, A1 250 msec): 134.2 ± 18.4 | Atrial MAP50 ([2]; Dose Level 1, A1 300 msec): 139.5 ± 20.4 | Atrial MAP50 ([2]; Dose Level 1, A1 400 msec): 152.6 ± 19.7 | QRS ([2]; Dose Level 1, A1 400 msec): 87.0 ± 6.6 | QT ([2]; Dose Level 1, A1 400 msec): 325.4 ± 9.0 | Atrial MAP50 ([2]; Dose Level 1, A1 600 msec): 172.8 ± 31.9 | QRS ([2]; Dose Level 1, A1 600 msec): 89 ± 9 | QT ([2]; Dose Level 1, A1 600 msec): 363 ± 27 | QRS Ave Δ ([2]; Dose Level 1, V1 400): 7.6 ± 11.5% | QRS ([2]; Dose Level 1, V1 400 msec): 160.5 ± 23.0 | QT ([2]; Dose Level 1, V1 400 msec): 381.5 ± 25.2 | QRS ([2]; Dose Level 1, V1 600 msec): 169 ± 24 | QT ([2]; Dose Level 1, V1 600 msec): 433 ± 30 | AERP 400 Ave Δ ([2]; Dose Level 2): 14.7 ± 11.5 % | AERP 400 Ave Δ (Change from Baseline) ([2]; Dose Level 2): 24.4 ± 17.8 ms | AERP 600 Ave Δ ([2]; Dose Level 2): 16.9 ± 9.0 % | SNRT (A1 400) ([2]; Dose Level 2): 1047.1 ± 212.2 ms | SNRT (A1 600) ([2]; Dose Level 2): 1033.3 ± 247.8 ms | Wenckebach Cycle Length ([2]; Dose Level 2): 366.9 ± 53.7 ms | Diastolic BP ([2]; Dose Level 2, 4 mg/kg): 75 ± 9 mm Hg | HEART RATE ([2]; Dose Level 2, 4 mg/kg): 91 ± 19 bpm | Systolic BP ([2]; Dose Level 2, 4 mg/kg): 126 ± 15 mm Hg | AERP ([2]; Dose Level 2, 300 msec): 192.8 ± 20.2 | AERP ([2]; Dose Level 2, 400 msec): 206.7 ± 25.6 | VERP ([2]; Dose Level 2, 400 msec): 227.5 ± 16.3 | AH interval ([2]; Dose Level 2, 400 msec pacing): 147.0 ± 67.6 | HV interval ([2]; Dose Level 2, 400 msec pacing): 50.2 ± 8.4 | PA interval ([2]; Dose Level 2, 400 msec pacing): 75.8 ± 24.4 | PR interval ([2]; Dose Level 2, 400 msec pacing): 261.2 ± 60.4 | AERP ([2]; Dose Level 2, 600 msec): 227.9 ± 22.5 | VERP ([2]; Dose Level 2, 600 msec): 261.7 ± 16.3 | AH interval ([2]; Dose Level 2, 600 msec pacing): 101.7 ± 21.5 | HV interval ([2]; Dose Level 2, 600 msec pacing): 50.9 ± 7.0 | PA interval ([2]; Dose Level 2, 600 msec pacing): 69.1 ± 21.5 | PR interval ([2]; Dose Level 2, 600 msec pacing): 224.6 ± 18.8 | Atrial MAP50 ([2]; Dose Level 2, A1 200 msec): 124.0 | Atrial MAP50 ([2]; Dose Level 2, A1 250 msec): 130.0 ± 14.5 | Atrial MAP50 ([2]; Dose Level 2, A1 300 msec): 135.6 ± 20.4 | Atrial MAP50 ([2]; Dose Level 2, A1 400 msec): 143.7 ± 25.2 | QRS ([2]; Dose Level 2, A1 400 msec): 86.4 ± 9.0 | QT ([2]; Dose Level 2, A1 400 msec): 336.7 ± 27.8 | Atrial MAP50 ([2]; Dose Level 2, A1 600 msec): 165.5 ± 33.3 | QRS ([2]; Dose Level 2, A1 600 msec): 89 ± 8 | QT ([2]; Dose Level 2, A1 600 msec): 364 ± 20 | QRS ([2]; Dose Level 2, V1 400 msec): 157.3 ± 22.5 | QT ([2]; Dose Level 2, V1 400 msec): 376.3 ± 32.5 | QRS ([2]; Dose Level 2, V1 600 msec): 157 ± 15 | QT ([2]; Dose Level 2, V1 600 msec): 412 ± 30 | effect on ventricular refractoriness, repolarization or conduction ([2]; at the doses studied): no significant effect | conduction effect in the AV node, His Purkinje, and ventricular tissue ([2]; conclusion of study): small but significant conduction slowing effect | effect on atrial refractory periods ([2]; conclusion of study): dose-dependently prolongs | patients with a metallic taste in mouth ([2]; n=19, both dose levels): three | patients with a transient tingling sensation ([2]; n=19, both dose levels): four | patients with numbness in tongue ([2]; n=19, both dose levels): one | patients with transient hypotension ([2]; n=19, both dose levels): one | concentration at 10 min ([3]; 2 mg/kg, patients receiving both infusions (3.0 + 2.0 mg/kg), read-out: Plasma Concentration of COMPOUND A at 10 min., Mean): 3910 ng/mL | concentration at 10 min ([3]; 3 mg/kg, patients receiving only a first infusion (3.0 mg/kg), read-out: Plasma Concentration of COMPOUND A at 10 min., Mean): 4280 ng/mL | concentration at 10 min ([3]; 3 mg/kg, patients receiving only a first infusion, read-out: Plasma Concentration of COMPOUND A at 10 min., Maximum): 11600 ng/mL | concentration at 10 min ([3]; 3 mg/kg, patients receiving only a first infusion, read-out: Plasma Concentration of COMPOUND A at 10 min., Median): 4080 ng/mL | concentration at 10 min ([3]; 3 mg/kg, patients receiving only a first infusion, read-out: Plasma Concentration of COMPOUND A at 10 min., Minimum): 0 ng/mL | concentration at 10 min ([3]; patients receiving both infusions, read-out: Plasma Concentration of COMPOUND A at 10 min., Maximum): 9330 ng/mL | concentration at 10 min ([3]; patients receiving both infusions, read-out: Plasma Concentration of COMPOUND A at 10 min., Median): 4070 ng/mL | concentration at 10 min ([3]; patients receiving both infusions, read-out: Plasma Concentration of COMPOUND A at 10 min., Minimum): 0 ng/mL | Maximum Plasma Concentration of COMPOUND A, Maximum [3, 5]: 9330 ng/mL | Maximum Plasma Concentration of COMPOUND A, Median [3, 5]: 4855 ng/mL | Maximum Plasma Concentration of COMPOUND A, Minimum [3, 5]: 1430 ng/mL | Maximum Plasma Concentration of COMPOUND A, Mean ([3]; patients receiving both infusions (3.0 + 2.0 mg/kg)): 4662 ng/mL | Maximum Plasma Concentration of COMPOUND A, Maximum [3, 6]: 11600 ng/mL | Maximum Plasma Concentration of COMPOUND A, Median [3, 6]: 4075 ng/mL | Maximum Plasma Concentration of COMPOUND A, Minimum [3, 6]: 7 ng/mL | Maximum Plasma Concentration of COMPOUND A, Mean ([3]; patients receiving only a first infusion (3.0 mg/kg)): 4466 ng/mL | median time to conversion ([4]; 3 hr-7 day group (n=75)): 11 min | pts with serious adverse events (%) [4, 7]: 13% | pts with serious adverse events (number) [4, 7]: 29 | Number of Pts Converted to Sinus Rhythm ([4]; Men): 53 | Pts (%) Converted to Sinus Rhythm ([4]; Men): 52% | Number of Pts Converted to Sinus Rhythm ([4]; No Prior Rate Control Drugs): 19 | Pts (%) Converted to Sinus Rhythm ([4]; No Prior Rate Control Drugs): 53% | Number of Pts Converted to Sinus Rhythm ([4]; Prior Rate Control Drugs): 56 | Pts (%) Converted to Sinus Rhythm ([4]; Prior Rate Control Drugs): 51% | Number of Pts Converted to Sinus Rhythm ([4]; Women): 22 | Pts (%) Converted to Sinus Rhythm ([4]; Women): 51% | Number of Pts Converted to Sinus Rhythm ([4]; age <65): 49 | Pts (%) Converted to Sinus Rhythm ([4]; age <65): 56% | Number of Pts Converted to Sinus Rhythm ([4]; age ≧65): 26 | Pts (%) Converted to Sinus Rhythm ([4]; age ≧65): 46% | drug-related Torsades de Pointes ([4]; in vivo): No cases | patients converted to SR ([4]; primary end-point group, AF 3 hr-7 days, 3 mg/kg then 2 mg/kg, within 90 min): 52%

Reference: US8263638B2, “Dosing regimens for ion channel modulating compounds” (priority 2004, dated 2012)
